Data reported in patent US20240325565A1, “COMBINATION TREATMENT FOR SOLID TUMORS INCLUDING A STING AGONIST AND A CCR2 ANTAGONIST” (University of Pittsburgh - Of the Commonwealth System of …, priority 2023, published 2024).

What was measured:
[1] = cited from earlier work
Panc02 tumor tissues = assay: Bulk RNA-Seq of Panc02 tumor tissues; type: in vivo, mice
Procedure: Bulk RNA-Seq Analysis. The Panc02 tumor-bearing mice were intravenously injected with saline, GEM and PGEM once every three days for 3 times, respectively. One day after last injection, the tumors were harvested for RNA sequencing (RNA-seq), which was performed by the Health Sciences Sequencing Core at Children's Hospital at University of Pittsburgh. RNA-Seq libraries were sequenced as 75-bp paired-end reads at a depth of ˜73-77 million reads per sample. Reads were mapped to the mouse genome (GRCm38) using STAR Aligner 2.6.1a. Gene expression quantification and differential expression analysis was performed on Saline, GEM, and PGEM treated tumor samples using RSEM 1.3.1 and Cuffdiff of Cufflinks 2.2.1. Volcano plots were generated to show the overall differential expression between pairwise comparisons among these three groups, where the x-axis indicates the log-transformed fold changes (log 2FC) and the y-axis indicates the corresponding negative log-transformed p-values (−log10(p-value)). The Gene Set Enrichment Analysis (GSEA), via GSEA software available from Broad Institute, Inc. of Cambridge, MA, was further performed based on the gene lists ranked by the log 2FC among three groups.

cGAS in Panc02 cells = assay: Picogreen staining and immunofluorescence for cGAS-bound micronuclei; type: cell-based, Murine; settings: compared with control and PVD-treated groups
Procedure: (§1) Immunofluorescence Microscopy. Panc02 cells were seeded on chamber slides and treated with saline, free GEM, PGEM micelles, and PVD micelles, respectively. For all immunofluorescence staining, cells were washed in PBS, fixed in 4% formaldehyde/PBS for ten minutes at room temperature (RT) and permeabilized in 0.25% Triton/PBS for 20 minutes at RT. Blocking was performed in 5% BSA/0.1% Triton/PBS for 30 minutes, followed by incubation with primary antibodies in blocking buffer for one hour at 37° C. incubator. Cells were washed in PBS and incubated with secondary antibodies in blocking buffer for one hour at RT, followed by washing and mounting on coverslips using ProLong Gold antifade reagent with DAPI. Cells were imaged using confocal microscope at the specified magnification. For picogreen-cGAS staining, cells were incubated with pico488 DNA quantification reagent for 2 hours at 37° C. For γH2AX staining, permeabilized cells were blocked in Serum-free DAKO Protein Block for one hour at RT. Cells were incubated in primary antibody (γH2AX, 1:500; anti-HA, 1:100) in DAKO antibody (available from Agilent of Santa Clara, CA) diluent at 4° C. overnight on a rocker platform.

[2] = system: STING pathway in Panc02 cells; assay: Western blotting of STING pathway-related proteins; type: cell-based, Murine
Procedure: Western blotting. Western blotting was performed to evaluate the STING activation in cultured Panc02 cells. Cells grown in six-well plates with 80% confluency were treated with saline, free GEM, PGEM micelles, and PVD micelles, respectively, for 48 h. Then, the cultured Panc02 cells were washed twice with pre-cooled PBS and lysed in Pierce™ RIPA buffer (available from Thermo Fischer Scientific of Pittsburgh, PA) for 30 min in 4° C. Protein concentrations were determined by BCA method, and equal amounts of total protein lysate were resolved on a 10% SDS-PAGE and subsequently transferred to a nitrocellulose membrane. Membranes were blocked with 5% non-fat milk in PBS for 1 h prior to incubation with various antibodies targeting IRF3, P-IRF3, STING, P-STING, and Cyclin B dissolved in PBST (DPBS with 0.1% Tween 20) overnight at 4° C. The blots were washed with PBST and then probed with goat antirabbit IgG for 1 h at room temperature followed by chemiluminescence detection by SuperSignal™ West Fento Maximum Sensitivity Substrate (available from Thermo Fischer Scientific). Q-Actin or GAPDH was used as a loading control.

Panc02 cells [3] = assay: γH2AX foci immunofluorescence (DNA double strand break marker); type: cell-based, Murine
Procedure: as §1

Panc02 cells [4] = assay: qRT-PCR in cultured Panc02 cells; type: cell-based, Murine
Procedure: qRT-PCR. Panc02 cells grown in six-well plates were treated with saline, free GEM, PGEM micelles, and PVD micelles, respectively, for 48 h. Then, RNA was isolated using the PureLinkTM RNA kit (InvitrogenTM available from Thermo Fisher Scientific) and reverse transcribed using the High-Capacity cDNA Reverse Tran--scription Kit (available from Applied Biosystems/Thermo Fisher Scientific) based on the manufacturer's guidelines. qPCR was performed using Power SYBR Green PCR MasterMix (Applied Biosystems) in a QuantStudio 3 Real-Time PCR System (Applied Biosystems). In a separate study, Panc02 cells grown in six-well plates were treated with PGEM for 72 h. One day after adding PGEM into the wells, control siRNA (siNC) or STING siRNA ([…]) was added into the wells without changing the medium, and incubated for 48 h. Then the RNA was extracted, and CCL2, CCL7 and ISG15 expression levels were detected as described above. In another study, whether CCL2, CCL7 and ISG15 were induced by type I IFNs was evaluated. Panc02 cells grown in six-well plates were treated with PGEM for 72 h. One day after adding PGEM into the wells, isotype control (10 μg/mL) or IFNAR1 antibody (10 μg/mL) was added into the wells without changing the medium, and incubated for 48 h. Then, the RNA was extracted subjected to qRT-PCR analysis of the mRNA expression levels of CCL2, CCL7 and ISG15.

Panc02 tumors [5] = assay: In vivo anti-tumor study in Panc02 tumor-bearing mice; settings: i.v. three times at an interval of three days; for inhibition of Panc02 tumor growth (therapeutic efficacy): GEM: 20 mg/kg, PF: 10 mg/kg; for anti-tumor activity of PGEM loaded with CCR2 inhibitor: 10 mg/kg for CCR2 inhibitor
Procedure: In vivo anti-tumor study. The antitumor effect was evaluated in syngeneic mice bearing Panc02 tumors. In brief, 1×10^5 Panc02 cells were inoculated into the right flank of female C57BL/6 mice. When the tumor volume reached ˜50 mm^3, the mice started to receive different treatments. […]. In a separate study, the synergistic tumor inhibition effect of PF and GEM was evaluated by intravenously injecting saline, free GEM, free PF, free GEM+PF, PGEM, and PGEM/PF (GEM: 20 mg/kg; PF: 10 mg/kg), respectively, into the Panc02 tumor-bearing mice. These treatments were also performed three times at an interval of three days. The tumor volumes and body weights were continuously monitored. At the endpoint, the tumor tissues and major organs were fixed in 10% formalin and dehydrated. Then they were embedded in paraffin and sectioned, followed by H&E staining with for histopathological examination. The biochemical parameters, including WBCs, RBCs, Hb, AST, ALT, and creatinine, were evaluated for safety profiles. The effect of PGEM/PF on the inhibition of lung metastasis of pancreatic cancer was also evaluated. A pulmonary metastasis model of pancreatic cancer was established by injecting KPC cells via tail vein. On day 10 following tumor cell inoculation, mice were i.v. administered with saline, free GEM+PF, PGEM, and PGEM/PF, respectively. The treatment was performed at day 10, day 14, and Day 18, and the mice were sacrificed at day 20.

Panc02 cells [6] = assay: MTT cytotoxicity assay; type: cell-based, Murine; settings: 96 h
Procedure: MTT assay. Panc02 cells were seeded in 96-well plates at a density of 1500 cells/well with 100 μL of complete culture medium (DMEM with 10% FBS and 1% streptomycin/penicillin). After overnight incubation, Panc02 cells were treated with various concentrations of saline, free PF, free BMS, free Bind, free GEM, free GEM+PF, PGEM, PGEM/PF, PGEM/BMS, and PGEM/Bind micelles. After 96 h, the cytotoxicity was determined by MTT assay. The absorbance of each well was measured at 590 nm and the cell viability was determined via the following formula: (ODtreated−ODblank)/(ODcontrol−ODblank)×100%.

[7] = Release of PF from PGEM/PF micelles (dialysis method); type: physicochemical; settings: 37° C., PBS with 0.5% tween 80, 24 h
Procedure: Release of PF from PGEM/PF micelles. The release of PF from PGEM/PF micelles was examined at 37° C. via a dialysis method with free PF as a control. PF-loaded PGEM micelles was transferred into a dialysis bag with MWCO of 3500 Da, which was then incubated in 50 mL PBS with 0.5% (w/v) tween 80 under gentle shaking. At specific time intervals, all the PBS solution outside the dialysis bag was withdrawn and replaced with another 50 mL of fresh solution. The PF concentrations in the solution were determined by HPLC.

Panc02 tumors [8] = assay: Quantification of tumor-infiltrating immune cells by flow cytometry; type: in vivo, mice; settings: i.v. every three days for three times
Procedure: Quantification of tumor-infiltrating lymphocytes by flow cytometry. Syngeneic C57BL/6 mice bearing Panc02 tumors received various treatments (saline, free GEM, free PF, free GEM+PF, PGEM, and PGEM/PF) via i.v. administration every three days for three times. Tumors were collected at 24 h following the last treatment. Single cell suspensions were prepared according to previous literature. See Wan, Z., et al., Science Advances, 7 (50), eabj4226 (2021). Then the cells were stained with various antibodies (Table 1) for flow cytometry analysis. For intracellular cytokine (IFN-γ and GZB) staining, cells were stimulated with PMA (100 ng/mL) and lonomycin (500 ng/mL) for 5 h in the presence of Monensin. Cells were fixed/permeabilized using the BD Cytofix/Cytoperm kit prior to cell staining. Then, the fixed/permeabilized cells were suspended in residual Intracellular Staining Perm Wash Buffer and a predetermined optimum concentration of fluorophore-conjugated antibody of interest was added (e.g. PE anti-IFN-γ) for 30 minutes. The data were analyzed using FlowJo software (available from Becton Dickenson & Company pf Ashland, OR). The percentage of cytokine (IFN-γ or GZB)-producing NK and CD8^+ T cells was gated under total NK and CD8^+ T cells, respectively, which represents the percentage of total NK or CD8^+ T that are IFN-γ or GZB positive.

[9] = Cuffdiff P<0.05, i.v. once every three days for 3 times

Compound	bioavailability [1]	solubility [1]	genes significantly downregulated (Panc02 tumor tissues; [9]) [genes]	genes significantly upregulated (Panc02 tumor tissues; [9]) [genes]	CCL2 and CCL7 gene expression (RNAseq) (Panc02 tumor tissues; mouse, in vivo)	ISG15 expression (RNAseq) (Panc02 tumor tissues; mouse, in vivo)	signals of cGAS-bound micronuclei (cGAS in Panc02 cells)	IRF3 and STING phosphorylation ([2]; 48 h)	normalized protein levels of pIRF3 and pSTING ([2]; compared with saline and PVD polymer-treated groups)	formation of γH2AX foci (Panc02 cells [3])	CCL2, CCL7 and ISG15 expression (Panc02 cells [4])	inhibition of Panc02 tumor growth (therapeutic efficacy) (Panc02 tumors [5])	anti-tumor activity of PGEM loaded with CCR2 inhibitor (Panc02 tumors [5])	anti-tumor activity of PGEM loaded with CCR2 inhibitor (Panc02 tumors [5]; listed as PF)	cytotoxicity (Panc02 cells [6])	PF diffused out of dialysis bag within 24 h [7]	percentage of MDSCs and TAMs in tumors (Panc02 tumors [8])
CC(=O)N[C@@H]1C[C@H](NC(C)(C)C)CC[C@@H]1N1CC[C@H](Nc2ncnc3cc(C(C)(C)C)nn23)C1=O [BMS813160, N-[(1R,2S,5R)-5-[(1,1-dimethylethyl)amino]-2-[(3S)-3-[[7-(1,1-dimethylethyl)pyrazolo[1,5-a]-1,3,5-triazin-4-yl]amino]-2-oxo-1-pyrrolidinyl]cyclohexyl]-acetamide]	low bioavailability	poor solubility	–	–	–	–	–	–	–	–	–	–	–	–	–	–	–
Nc1ccn([C@@H]2O[C@H](CO)[C@@H](O)C2(F)F)c(=O)n1 [GEM, Gemcitabine]	–	–	489	416	upregulation	upregulated	significantly increased	significantly induced	significantly higher	induced	similarly induced	modest effect	–	–	–	–	–
O=C(NCC(=O)N1CC[C@H](N[C@H]2CC[C@@](O)(c3ccc(-c4ncccn4)cn3)CC2)C1)c1cccc(C(F)(F)F)c1 [PF-04136309, N-(2-((S)-3-(((1r,4S)-4-hydroxy-4-(5-(pyrimidin-2-yl)pyridin-2-yl)cyclohexyl)amino)pyrrolidin-1-yl)-2-oxoethyl)-3-(trifluoromethyl)benzamide]	low bioavailability	poor solubility	–	–	–	–	–	–	–	–	–	modest effect	best combination effect	best results	slight cytotoxicity	over 95%	decrease
